Peptide text beside a SMILES is read from it. * marks the point of attachment. Trt = c1ccc(C(c2ccccc2)(c2ccccc2)*)cc1; Cbz = O=C(OCc1ccccc1)*; NHNH2 = NN*
Biological target: Cdc42 (Homo sapiens, UniProt P60953)
Assay: Cdc42-GEF-assay, additional compound screening
Assay type: biochemical
Design: purchased Cytoskeleton Inc
Conditions: for % ZCL367 (inhibitor activity): percentages of ZCL367 normalized to batch, less than 100% = more potent inhibitor; for % ZCL278 (with GEF): assay slope relative to ZCL278, normalized to batch; for % ZCL278 (without GEF): baseline slope relative to ZCL278, normalized to batch; for % ZCL278 (activator activity): percentages of ZCL278 activity normalized to batch, more than 100% = more potent activator, Table 9
Experimental: Rho-GEF IC50 Assay: Rho-GEF assay (Cytoskeleton Inc., Denver, Colorado, United States of America) was conducted per manufacturer's instructions (λex=360 nm, λem=460 nm). Briefly, a solution (50 μL) of purified Rho GTPase (1 μM) and mant-GTP (1.5 μM) with or without compound (0.001-500 μM) was prepared and the absorbance monitored for 10-30 min to obtain the background/baseline. The addition of purified GEF/DH domain (0.08-0.2 μM) was carried out simultaneously and the absorbance was recorded for 30-45 min. The linear slope following the addition of the GEF was calculated and expressed as percentage of the control and plotted on an IC50 curve.
Cdc42 (1 μM) was incubated with mant-GTP (1.5 μM) and varying concentrations of ZCL278, ZCL279, or ZCL367 (5-500 μM). Fluorescent readings were taken every minute for 10 m to acquire the baseline. The GEF/DH domain (0.08-0.2 μM) was added followed by readings taken every minute for another 30 m. The linear phase was calculated from within the time period of 12-22 m. Cdc42 (1 μM) was incubated with mant-GTP (1.5 μM) and varying concentrations of ZCL278, ZCL279, or ZCL367 (5-500 μM). Fluorescent readings were taken every minute for 30 m to monitor the binding of mant-GTP in the absence of GEF/DH domain.
Cdc42-GEF-assays were conducted on additional screening compounds in batches of 9 compounds per batch as described above in Example 2 using ZCL278 and ZCL367 as standards. Screening compounds were taken from the Specs Chemistry Database of 197,000 compounds for small molecule or the National Cancer Institute Compound Library. […] These compounds promote Cdc42-mantGTP binding without GEF. It is possible that these compounds can inhibit Cdc42-mantGTP binding with GEF. […] These compounds appear to have activity like ZCL279. […] However, upon the addition of GEF, the compounds appear to facilitate the binding of mantGTP to Cdc42 (high assay slope, relative to ZCL278)

Sequence of Cdc42 (P60953 whole entry): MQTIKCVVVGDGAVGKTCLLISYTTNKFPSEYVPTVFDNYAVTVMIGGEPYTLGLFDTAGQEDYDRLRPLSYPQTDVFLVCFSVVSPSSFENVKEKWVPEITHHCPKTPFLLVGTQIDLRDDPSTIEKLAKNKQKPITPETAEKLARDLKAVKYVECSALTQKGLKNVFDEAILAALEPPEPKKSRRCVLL

% ZCL367 (inhibitor activity) | % ZCL278 (with GEF) | % ZCL278 (without GEF) | Structure (SMILES) | other results
64.92% | – | – | CC1(C)OCC(C2OC(O)C3OC(C)(C)OC32)O1 (stereo not shown) [NSC25268] | –
– | 92.160% | 15.832% | OCN1CCC2N(CO)CCC3N(CO)CCC1N23 (stereo not shown) [NSC81461] | –
– | 96.844% | 34.327% | O=c1[nH]cc(C2OCC(O)C(O)C2O)c(=O)[nH]1 (stereo not shown) [NSC94024] | –
– | 185.829% | 9.098% | Cc1cn(C2OC(C(O)C(N)=O)C(O)C2O)c(=O)[nH]c1=O (stereo not shown) [NSC111600] | –
– | – | – | NC1C=CN(C2OC(CO)C(O)C2O)C(=O)N1O (stereo not shown) [NSC128731] | % ZCL278 (activator activity): 108.28%
– | 96.611% | 31.919% | NNC(=O)C(Cc1cnc[nH]1)NC(=O)CNC(=O)C(CSC(c1ccccc1)(c1ccccc1)c1ccccc1)NC(=O)OCc1ccccc1 (stereo not drawn) [NSC129911] (Cbz-Cys(Trt)-Gly-His-NHNH2; configuration not given here) | –
– | 82.316% | 20.812% | CC1(C)OC2COC(c3[nH]nc(C(N)=O)c3C(=O)N=[N+]=[N-])C2O1 (stereo not shown) [NSC136024] | –
62.98% | – | – | NC(=O)c1[nH]nc(C2OC(CO)C(O)C2O)c1O (stereo not shown) [NSC143095] | –
– | 127.593% | 12.229% | NS(=O)(=O)c1ccc(NC2OCC(O)C(O)C2O)cc1 (stereo not shown) [NSC158437] | –
70.58% | – | – | Cc1c2oc3c(C)ccc(C(=O)NC(C(N)=O)C(C)O)c3nc-2c(C(=O)NC(C(N)=O)C(C)O)c(N)c1=O (stereo not shown) [NSC407188] | –
29.97% | – | – | O=C(CCCN1C(=O)/C(=C2\SC(=S)N(CCCC(=O)Nc3ccccc3O)C2=O)SC1=S)Nc1ccccc1O [ZCL1100] | –
3.42% | – | – | CCCCCn1c(O)c(C(=O)Nc2ccccc2S(N)(=O)=O)c(=O)c2ccccc21 [ZCL1105] | –
62.37% | – | – | O=C1C2C(C(=O)N1/N=C/c1c(O)ccc3ccccc13)[C@H]1C=CC2C12CC2 (stereo partly shown) [ZCL1107] | –
55.74% | – | – | O=C1/C(=C/c2ccc(O)c(O)c2)SC(=S)N1Nc1ccccc1 [ZCL1109] | –
104.15% | – | – | O=C(CCCN1C(=O)/C(=C2\SC(=S)N(CCCC(=O)Nc3ccccc3O)C2=O)SC1=S)Nc1ccccc1O [ZCL1110] | –
109.35% | – | – | O=c1c2ccccc2nc(/C=C/c2c(O)ccc3ccccc23)n1-c1ccc(O)cc1 [ZCL1111] | –
27.33% | – | – | OCCNC[C@H](O)Cn1c(-c2ccccc2)c(-c2ccccc2)c2ccc3ccccc3c21 [ZCL1115] | –
74.15% | – | – | O=C(CSCc1ccccc1)Nc1ccc(C(=O)O)cc1NC(=O)CSCc1ccccc1 [ZCL1117] | –
46.77% | – | – | NC(=O)c1cc([N+](=O)[O-])ccc1NCCN1C(=O)C2C(C1=O)[C@H]1C=C[C@@H]2C1 (stereo partly shown) [ZCL1118] | –
– | 103.291% | 59.173% | O=C(CCN1C(=O)C2C(C1=O)[C@H]1C=C[C@@H]2C1)Nc1cccc2ccccc12 (stereo partly shown) [ZCL1119] | –
81.19% | – | – | C[C@H](Oc1cccc(Cl)c1)C(=O)Nc1ccccc1NC(=O)[C@H](C)Oc1cccc(Cl)c1 [ZCL1120] | –
– | 97.542% | 63.125% | CC(=O)Nc1ccc(Nc2nc(-c3ccc(O)cc3)cs2)cc1 [ZCL1124] | –
28.67% | – | – | NC(=O)c1ccsc1NC(=O)c1cc(-c2cccc(Br)c2)nc2ccc(Cl)cc12 [ZCL1125] | –
98.5% | – | – | O=C(Nc1ccc(S(=O)(=O)Nc2cccc3ccccc23)cc1)Nc1cccc(Cl)c1 [ZCL1127] | –
93.54% | – | – | O=C(C(=O)N1CCC(O)(CO)CC1)c1c(-c2ccccc2)cc2ccccn12 [ZCL1137] | –
88.55% | – | – | NC(=O)CCN(Cc1ccccc1)C(=O)Nc1cccc(OC2CCCC2)c1 [ZCL1139] | % ZCL278 (activator activity): 100.29%
– | 98.499% | 69.001% | O=C(c1ccccc1O)N1CCOc2c(O)cc(-c3nc4ccccc4s3)cc2C1 [ZCL1142] | –
– | 96.811% | 45.056% | c1ccc(-c2nc3c(c(NCc4cn5ccsc5n4)n2)CCNC3)cc1 [ZCL1143] | –
– | – | – | c1ccc(-c2nc3c(c(NCc4cn5ccsc5n4)n2)CCNC3)cc1 [ZCL1144] | % ZCL278 (activator activity): 454.3%

Source: patent US12285393B2, “Roles of modulators of intersectin-Cdc42 signaling in Alzheimer's disease” (priority 2017, dated 2025)
